Reference: patent US9546129B2, “DTPA prodrugs, compositions thereof, and methods of using the same” (priority 2012, dated 2017)

What was measured:
[1] = Protonation constants by potentiometric titration; format: physicochemical; conditions: 5 mM ligand in 0.15 M KCl
Experimental: The protonation constants for C2E2 were determined by preparing a 5 mM solution of free ligand in 0.15 M KCl. The constants were calculated from three replicates, with each experiment consisting of a titration with acid, followed by a titration with base. After each addition of titrant, a 30 second equilibration time passed before pH measurement with a Seven Easy pH meter and (Ag/AgCl reference) glass electrode (Metler Tolledo). At the end of the titrations, the presence of C2E2 was confirmed by HPLC-CAD. Evaluation of the titration curve for C2E2 (FIG. 31) identified 6 pKa values that correspond with the three tertiary amines and three carboxylic acids. The values were determined by refinement using […] software. The pKa values determined for C2E2 are consistent with DTPA analogues previously investigated for use as MRI contrast agents with two carboxylic acids are functionalized such as DTPA-BMA and DTPA-BBA (Rizkalla, E. N., et al., Inorganic Chemistry, 32, 582-586, (1993) and Geraldes C. F., et al., Journal of the Chemical Society-Dalton Transactions, 327-335 (1995)).

[2] = Body weights and clinical observations in the rat single dose decorporation study; format: in vivo, Sprague Dawley rat; conditions: iv Ca-DTPA 14 mg/kg, ad libitum; for Mean body weight: in g (unit assumed)
From the text: Each rat was weighed at contamination (Day 0) and the terminal body weight (Day 7) was taken at necropsy.

[3] = comparison values; cited from earlier work
[4] = Stability study in water (pH and precipitation of solubility samples); format: physicochemical; conditions: for Precipitation on storage (observation): room temperature, 4° C., −20° C.
Experimental: Method 2 was used to prepare the C2E2 for the dosing formulations. Specifically, Lots 050 and 005-2 were prepared using Method 2, whereas the Reference standard and MTD Lot were prepared using Method 1. For the dosing formulations, de-ionized water (DI water tap in room 18/19) was used with the C2E2 prepared using Method 2. The dosing formulations were compared with C2E2 formulations prepared using Milli-Q water. The pH of each sample was recorded and the values are listed below in Table 2.
In order to re-create the unusual solutions, 1-mL samples of C2E2 (Lots 005-2 and 050; MTD Lot; and Reference std) were made at concentrations of 100 mg/mL in Milli-Q water. A set of samples was stored at room temperature, in the refrigerator (4° C.), and in the −20° C. freezer. […] Storage at 4° C. exacerbates the precipitation of Lot 050. After 8 days, both the Reference Standard and Lot 050 have significant amounts of solid detected at 4° C. and room temperature and crystals have started to form. […] While not wishing to be bound to any particular theory, this is likely because more impurities increase the solubility.

[5] = Polymorph stability (DSC, competitive ripening, storage); format: physicochemical; conditions: higher melting point, lower solubility
Experimental: Samples of C2E2 (˜5 mg) were crimped and evaluated by DSC over a range of 25° C. to 320° C. with a heating rate of 10.00° C./min. A sample was also cycled three times from 25 to 150° C. with a heating rate of 10° C./min and a cooling rate of 5° C./min. Both the MTD Lot and the Reference Standard show a melting point near 120° C. Lot 050 has a melting point of about 140° C.
50 mg each of Lot 050 and the Reference standard were combined in 500 μL of water and stirred at room temperature overnight. After stirring, the remaining solid was filtered from the liquid, allowed to dry and analyzed by DSC.

^241Am contaminated rats [6] = assay: Once vs twice daily dosing ^241Am decorporation study in rats; format: in vivo, Sprague Dawley rat; conditions: Zn-DTPA 13.3 mg/kg intravenous daily x5, male rats, seven days after IM ^241Am
Experimental: The animal study was conducted according to a protocol approved by The University of North Carolina at Chapel Hill Institutional Animal Care and Use Committee. Sixteen male Sprague Dawley rats were contaminated with ^241Am(NO3)3 (0.25 μCi) by intramuscular injection (0.1 mL, 0.1 M HNO3) into the right hind leg, under isoflurane anesthesia. Immediately after injection, body weights were recorded (Day 0 weight) and animals placed in individual metabolic cages. The 16 rats were assigned to four groups; untreated control, 5 daily oral gavage doses of 600 mg/kg C2E2 once daily, 5 days of oral gavage treatment of 300 mg/kg C2E2 twice daily or 5 daily intravenous doses of Zn-DTPA solution (13.3 mg/kg) via a jugular vein catheter. The C2E2 was from Lot 050 obtained using Method 2. The C2E2 dosing solution utilized was a 10% w/w solution in water. […] Excreted urine and feces were collected at 2, 4, 8, 10, 12, 14, 18, 20 and 24 hours after the first dose and daily for the remainder of the study. The samples were transferred to 20 mL scintillation vials, weighed and placed in a gamma counter (Wizard2 2480, Perkin Elmer) for detection of ^241Am gamma activity. In addition, following necropsy, selected tissues were removed, weighed and placed in a gamma counter (Wizard2 2480, Perkin Elmer) for detection of ^241Am gamma activity. The total amount of ^241Am administered to the animals was determined by quantifying the 59.7 keV photons emitted by ^241Am in duplicate aliquots (100 μL) of the injection solution using a gamma counter (wizard series, Perkin-Elmer). A counting window from 40-80 keV and a 60-second counting time were used for acquisition and each reading was corrected for background at acquisition. All experimental tissues and samples were counted using the same gamma counter and protocol. For all the samples, ^241Am content was expressed as a percentage of the initial dose. The femur from the leg opposite to the injection site was scaled by a factor of 20 to estimate total skeletal ^241Am burden.

^241Am contaminated rats [7] = assay: C2E2 single dose ^241Am decorporation in rats (IM contamination); format: in vivo, Sprague Dawley rat; conditions: DTPA 14 mg/kg IV, ad lib; single dose 24 h after IM ^241Am, 7 days, female rats
Experimental: This study was to assess the efficacy of a single oral gavage dose of C2E2 in ^241Am contaminated rats. A 200 μL aliquot was withdrawn from a stock solution of ^241Am nitrate (0.1 mCi in 5 mL 1 M HNO3), evaporated to dryness, dissolved in concentrated HNO3 (15 M, 5 mL) then evaporated to dryness and dissolved in dilute HNO3 (0.1 M, 8 mL) to form the injection solution. Groups of 4 female Sprague-Dawley rats were contaminated with 250 nCi of ^241Am nitrate by IM injection ([…]) then were administered single doses of C2E2 by gavage at 200, 600, or 1000 mg/kg under ad lib feeding conditions utilizing a 10% w/w solution in sterile water (dose volumes were 2, 6, and 10 mL/kg, for the 200, 600, and 1000 mg/kg doses, respectively). For the fasted component of the study, the animals were fasted 24 hours before treatment then for 2 hours post drug administration. Control groups with ad lib access to food and water were either untreated or administered an IV dose of the calcium salt of DTPA (Ca-DTPA) at 14 mg/kg (target dose volume of 0.7 mL/kg and concentration of 20 mg/mL). Treatment was administered 1 day after contamination. All animals were euthanized 7 days after contamination and the following tissues were collected: liver, both kidneys, both femurs as well as the ipsilateral and the contralateral hind leg muscle tissue and the pelt from the injection site. Urine and feces were collected from the time of contamination through euthanasia. Cage washings were also collected at the end of the study and considered part of total urine collection. Two aliquots (100 μL) of the injection solution were removed and ^241Am gamma activity was determined using radiomatic detection. The average of these standards is the injected dose used for all animals. All tissues and samples were counted in a similar manner. Americium content was expressed as a percentage of the injected dose. Overall recovery of radioactivity across all groups in this study was approximately 90%. […] The primary route by which both DTPA and C2E2 enhanced elimination of ^241Am occurred was by urinary clearance. […] Fecal clearance of ^241Am was not altered by feeding status, an observation that is consistent with the similar liver burden between the two groups at the end of the study. […] As with DTPA, enhanced decorporation by C2E2 occurred through enhanced urinary clearance.
Male and female Sprague Dawley rats (n=4/gender/dose) were administered single oral doses of diethylenetriaminepentaacetic acid diethyl ester (C2E2) by gavage 24 hours after intramuscular contamination with ^241Am(NO3)3 (250 nCi) under ad libitum and fasted conditions. Animals received single oral nominal doses of 200, 600, or 1000 mg/kg C2E2. Untreated animals and animals treated with an intravenous dose of Ca-DTPA ([…]) 24 hours after contamination served as controls; only ad libitum conditions were used for control animals. Total radionuclide decorporation and radionuclide tissue burden were evaluated seven days after contamination.
Male and female Sprague Dawley rats were contaminated with ^241Am(NO3)3 (0.25 μCi) by intramuscular injection (0.1 mL, 0.1 M HNO3) into the right hind leg, under isoflurane anesthesia. Immediately after injection, body weights were recorded (Day 0 weight) and animals were placed in individual metabolic cages.
Approximately eight hours after contamination—and 16 hours before test article administration—rats assigned to the Fasted groups had access to food restricted by removing the food chamber from their metabolic cages and collecting all loose chow from their housing chambers. Food chambers were replaced 1 hour after oral gavage treatment, restoring access to food. At all other times all animals had ad libitum access to food.
Male and female Sprague-Dawley rats assigned to test groups each received a single oral gavage dose of 0, 200, 600, or 1000 mg/kg of C2E2 utilizing a 10% w/w solution in water 24 hours after contamination. […]

CCOC(=O)CN(CCN(CCN(CC(=O)O)CC(=O)O)CC(=O)O)CC(=O)O [C2E1]
PKa2 [1]: 2.99 ± 0.05
pKa1 [1]: 6.35
pKa3 [1]: 1.72 ± 1.5
pKa4 [1]: 1.18 ± 0.45
pKa5 [1]: <1.5
pKa6 [1]: <1.5

O=C([O-])CN(CCN(CC(=O)[O-])CC(=O)[O-])CCN(CC(=O)[O-])CC(=O)[O-].[Ca+2].[Na+].[Na+].[Na+] [Ca-DTPA, reference compound]
Mean Percentage Body Weight Change ([2]; Female): −0.1 ± 1.9%
Mean Percentage Body Weight Change ([2]; Male): 4.5 ± 6.1%
Mean body weight ([2]; female rats, Day 0): 273.6 ± 7.7
Mean body weight ([2]; female rats, Day 7 (terminal)): 273.3 ± 11.2
Mean body weight ([2]; male rats, Day 0): 301.0 ± 4.0
Mean body weight ([2]; male rats, Day 7 (terminal)): 314.6 ± 20.4

O=C(O)CN(CCN(CC(=O)O)CC(=O)O)CC(=O)O [EDTA]
Stability of the gadolinium complex, log K [3]: 17.0

CCOC(=O)CN(CCN(CCN(CC(=O)O)CC(=O)OCC)CC(=O)O)CC(=O)O [Lot 005-2, 6,9-bis(carboxymethyl)-3-(2-ethoxy-2-oxoethyl)-11-oxo-12-oxa-3,6,9-triazatetradecan-1-oic acid]
pH of formulations prepared using Milli-Q water ([4]; 100 mg/mL): 2.54
Precipitation on storage (observation) ([4]; 100 mg/mL in Milli-Q water): do not come out of solution

CCOC(=O)CN(CCN(CCN(CC(=O)O)CC(=O)OCC)CC(=O)O)CC(=O)O [Lot 050, 6,9-bis(carboxymethyl)-3-(2-ethoxy-2-oxoethyl)-11-oxo-12-oxa-3,6,9-triazatetradecan-1-oic acid]
pH of formulations prepared using de-ionized water ([4]; 20 mg/mL): 3.04
pH of formulations prepared using de-ionized water ([4]; 60 mg/mL): 2.93
pH of formulations prepared using Milli-Q water ([4]; 100 mg/mL): 2.60
pH of formulations prepared using de-ionized water ([4]; 100 mg/mL): 2.93
Precipitation on storage (observation) ([4]; 100 mg/mL in Milli-Q water): begins to come out of solution after three days
Relative stability of polymorph [5]: most stable

CCOC(=O)CN(CCN(CCN(CC(=O)O)CC(=O)OCC)CC(=O)O)CC(=O)O [MTD Lot, 6,9-bis(carboxymethyl)-3-(2-ethoxy-2-oxoethyl)-11-oxo-12-oxa-3,6,9-triazatetradecan-1-oic acid]
pH of formulations prepared using Milli-Q water ([4]; 100 mg/mL): 2.35
Precipitation on storage (observation) ([4]; 100 mg/mL in Milli-Q water): do not come out of solution

CCOC(=O)CN(CCN(CCN(CC(=O)O)CC(=O)OCC)CC(=O)O)CC(=O)O [Reference Standard, 6,9-bis(carboxymethyl)-3-(2-ethoxy-2-oxoethyl)-11-oxo-12-oxa-3,6,9-triazatetradecan-1-oic acid]
Time at which material starts to precipitate ([4]; 100 mg/mL in Milli-Q water, regardless of storage temperature): ≤ 24 h
pH of formulations prepared using Milli-Q water ([4]; 100 mg/mL, listed as Purified C2E2 (Reference std)): 2.43

O=C([O-])CN(CCN(CC(=O)[O-])CC(=O)[O-])CCN(CC(=O)[O-])CC(=O)[O-].[Na+].[Na+].[Na+].[Zn+2] [i.v. Control, reference compound]
Total Decorporation (^241Am contaminated rats [6]): 54.0 ± 3.9 % of injected dose

diethylenetriamine pentaacetic acid [DTPA]
Cage Wash ^241Am (^241Am contaminated rats [7]): 3.6 ± 0.8%
Feces ^241Am (^241Am contaminated rats [7]): 10.3 ± 1.7%
Liver burden (^241Am contaminated rats [7]): 12.3 ± 1.2 % injected
Total Decorporation (^241Am contaminated rats [7]): 36.1 ± 4.6 % injected
Urine ^241Am (^241Am contaminated rats [7]): 22.1 ± 2.6%
Stability of the gadolinium complex, log K [3]: 22.5
